Source: PubChem BioAssay AID1996
Converted amounts (≈) assume the structure as drawn.

Conditions: buffer; pH 7.4; 200.0 µM

| Structure (SMILES) | solubility kinetic |
| --- | --- |
| CC(C)CC(NC(=O)OC(C)(C)C)C(=O)O.O (centres undefined) | > 37.4 µg/mL |
| CCOC(=O)C1CCN(c2ncnc3cc(OC)c(OC)cc23)CC1 | 51.3 µg/mL (≈ 149 µM) |
| CN(C)/C=C/C(=O)c1ccc([N+](=O)[O-])c(CS(=O)(=O)c2ccccc2)c1 | > 56.2 µg/mL |
| CC(=O)Nc1cccc(C(=O)Nc2nc(C)cs2)c1 | 37.4 µg/mL (≈ 136 µM) |
| O=C(Nc1ccc(F)cc1)NC1CCN(Cc2c(F)cccc2Cl)CC1 | 2.8 µg/mL (≈ 7.37 µM) |
| O=CN1CCN(CC(O)Cn2c3ccccc3c3ccccc32)CC1 (centres undefined) | 43.3 µg/mL (≈ 128 µM) |
| OC[C@H]1O[C@@H](n2cnc3c(NC4CCCC4)ncnc32)[C@H](O)[C@@H]1O | > 50.3 µg/mL |
| Cc1cccc(C)c1NC(=O)c1ccc(OCc2c(C)noc2C)cc1 | 8.7 µg/mL (≈ 24.8 µM) |
| Cc1cc(C)cc(C(N)=Nc2cccc(C#N)c2)c1 | > 37.4 µg/mL |
| COc1ccccc1N1CCN(c2ccc(S(=O)(=O)N3CCN(C)CC3)cn2)CC1 | 26.9 µg/mL (≈ 62.3 µM) |
| COc1ccc(OCC(O)CNS(=O)(=O)c2cccs2)cc1 (centres undefined) | > 51.5 µg/mL |
| O=C(COC(=O)CNC(=O)c1ccccc1Cl)NC1CCCC1 | > 50.8 µg/mL |
| Cc1cccnc1NC(=O)Nc1ccc(Cl)cc1 | 0.7 µg/mL (≈ 2.67 µM) |
| COc1cc(S(=O)(=O)NC2CCCCC2C)ccc1F (centres undefined) | > 45.2 µg/mL |
| O=c1c(Cc2ccc(F)cc2)c(O)ccn1Cc1ccco1 | 33 µg/mL (≈ 110 µM) |
| O=S(=O)(c1ccccc1)c1nc(-c2ccco2)oc1N1CCCCC1 | 16.1 µg/mL (≈ 44.9 µM) |
| COc1ccc(NC(=O)COc2ccccc2)cc1Cl | 34 µg/mL (≈ 117 µM) |
| Cc1ccc(NC(=O)CN(C)C(=O)CSc2nccn2C)cc1 | > 49.9 µg/mL |
| CCN(CC(=O)NCc1cccs1)C(=O)c1ccc(Cl)c(Cl)c1 | > 55.7 µg/mL |
| Cc1ccc(C(=O)OCC(=O)N(C)c2ccccc2)cc1C | 41.4 µg/mL (≈ 139 µM) |
| CC(=O)c1c(C)[nH]c(C(=O)OCc2csc(CC(=O)Nc3ccccc3C)n2)c1C | 4.2 µg/mL (≈ 9.87 µM) |
| O=C1CCCN1C(=O)CSc1ncnc2sccc12 | > 44 µg/mL |
| NS(=O)(=O)c1ccc(NC(=O)CCCC(=O)O)cc1 | > 42.9 µg/mL |
| Cc1ccc(N2CC(C(=O)N3CCCCCC3)CC2=O)cc1 (centres undefined) | > 45.1 µg/mL |

| Structure (SMILES) | solubility kinetic |
| --- | --- |
| CC(=O)N1CCN(C(=O)c2ccc(Oc3ccccc3)cc2)CC1 | 46.6 µg/mL (≈ 144 µM) |
| Cc1ccc(CNC(=O)c2ccc(Cl)c(S(N)(=O)=O)c2)n1C | 41.5 µg/mL (≈ 121 µM) |
| CCOC(=O)C1CCCN(C(=S)Nc2ccc(S(=O)(=O)N3CCOCC3)cc2)C1 (centres undefined) | > 66.2 µg/mL |
| NC(=O)CSc1nc2cccnc2n1-c1ccc(F)cc1 | 45.2 µg/mL (≈ 150 µM) |
| Nc1nc2ccccc2cc1-c1cccs1 | 27.7 µg/mL (≈ 122 µM) |
| O=C(COC(=O)/C=C/c1ccccc1[N+](=O)[O-])Nc1ccc(S(=O)(=O)N2CCOCC2)cc1 | 24 µg/mL (≈ 50.5 µM) |
| NS(=O)(=O)c1ccc(NC(=O)c2ccc(S(=O)(=O)N3CCCCCC3)cc2)cc1 | 6.3 µg/mL (≈ 14.4 µM) |
| CN1CCN(c2ccc(S(=O)(=O)N3CCOCC3)cc2NC(=O)CSCc2ccccc2)CC1 | > 75.7 µg/mL |
| CCOc1ccc(S(=O)(=O)NC2CCCC2)cc1 | 18.3 µg/mL (≈ 67.9 µM) |
| Cc1cc(C)cc(C(=O)NCC(=O)OCC(=O)NC2CC2)c1 | > 45.7 µg/mL |
| O=C(Nc1ccccc1C(=O)NCCCN1CCOCC1)c1ccc(F)cc1 | 55.4 µg/mL (≈ 144 µM) |
| Cc1cc(-c2nc(-c3ccc(C(C)(C)C)cc3)no2)no1 | < 0.2 µg/mL |
| Cl.NC(Cc1ccccc1)c1nc2ccccc2[nH]1 (centres undefined) | 40.3 µg/mL |
| CCn1cc(CCC(=O)O)c(C)n1 | > 27.3 µg/mL |
| CCc1ccccc1NC(=O)N1CCc2ccccc21 | 6.1 µg/mL (≈ 22.9 µM) |
| Cc1ccc(CN(C)C(=O)c2c(C)nn(-c3ccccc3)c2C)cc1 | > 50 µg/mL |
| Cc1[nH]ccc(=O)c1Cc1c(Cl)cccc1Cl | > 40.2 µg/mL |
| O=C(CSc1ccccc1)NC1=NCCS1 | 32.4 µg/mL (≈ 128 µM) |
| Cc1ccc(C(=O)NCCN2CCOCC2)cc1C | 38.1 µg/mL (≈ 145 µM) |
| COc1cccc(NC(=O)c2ccc3c(c2)OCCO3)c1 | > 42.8 µg/mL |
| CCOc1ccccc1N=CC1=C(O)CC(c2ccccc2)CC1=O (centres undefined) | 3.4 µg/mL (≈ 10.1 µM) |
| CCOc1ccc(/C=C/c2nc(C#N)c(NCCCN(C)C)o2)cc1 | > 51.1 µg/mL |
| c1ccc2c(c1)cnc1ccccc12 | 7.7 µg/mL (≈ 43 µM) |
| COc1ccccc1NS(=O)(=O)c1cccc(NC(=O)c2cncc(Br)c2)c1 | 6.4 µg/mL (≈ 13.8 µM) |

| Structure (SMILES) | solubility kinetic |
| --- | --- |
| CCCCCC(=O)NC(CC(=O)OC)c1ccc2c(c1)OCO2 (centres undefined) | > 48.2 µg/mL |
| CCOc1ccccc1C(=O)NCC(=O)NCC1CCCCC1 | 5.6 µg/mL (≈ 17.6 µM) |
| CCc1ccc(S(=O)(=O)Nc2ccc(N3CCN(C)CC3)cc2)cc1 | 50.8 µg/mL (≈ 141 µM) |
| Cc1ccc(OCC(=O)Nc2c[nH]c(=O)[nH]c2=O)cc1C | 1 µg/mL (≈ 3.46 µM) |
| COC(=O)/C=C/COc1ccccc1[N+](=O)[O-] | 17.9 µg/mL (≈ 75.5 µM) |
| Cc1ccccc1N1CCN(S(=O)(=O)c2cccs2)CC1 | 4 µg/mL (≈ 12.4 µM) |
| COc1ccc(NC(=O)NCc2ccco2)cc1OC | 37.6 µg/mL (≈ 136 µM) |
| Cc1ccc(NC(=O)CNC(=O)c2ccc(C)o2)cc1 | > 40.8 µg/mL |
| O=C(NCCc1ccccc1)c1ccc2c(c1)OCO2 | 39.6 µg/mL (≈ 147 µM) |
| COc1ccc(OC)c(NC(=O)Nc2ccc3c(c2)OCO3)c1 | 2.3 µg/mL (≈ 7.27 µM) |
| O=C(COC(=O)c1cncc(Br)c1)NCc1cccs1 | 40.6 µg/mL (≈ 114 µM) |
| CCC(C)c1ccc(NC(=O)Nc2cccnc2)cc1 (centres undefined) | 33.2 µg/mL (≈ 123 µM) |
| Fc1ccc(-c2csc(Nc3ccccn3)n2)cc1 | 0.6 µg/mL (≈ 2.21 µM) |
| CCNC(=O)c1ccc(=O)n(Cc2ccc(Cl)cc2Cl)c1 | 39 µg/mL (≈ 120 µM) |
| O=C(CN1C2CCCC1CC(NC(=O)c1ccccc1)C2)NC1CC1 (centres undefined) | > 51.2 µg/mL |
| CCOC(=O)C1CCN(C(=O)COC(=O)CSc2ccccc2C)CC1 | > 56.9 µg/mL |
| O=C(O)CSCc1nc2scc(-c3ccccc3)c2c(=O)[nH]1 | > 49.9 µg/mL |
| Cc1cc(C)c2nc(N(CCN(C)C)C(=O)/C=C/c3cccs3)sc2c1.Cl | 0.9 µg/mL |
| C1CCC2S[C@H]3CCCCC3NC2C1 (some centres undefined) | 25.3 µg/mL (≈ 120 µM) |
| Cc1nc2ccccc2n1Cc1ccc(Br)cc1 | 37.8 µg/mL (≈ 126 µM) |
| CC(=O)c1ccc(Sc2ccccn2)c([N+](=O)[O-])c1 | 38 µg/mL (≈ 139 µM) |
| O=C(COc1ccccc1F)NC12CC3CC(CC(C3)C1)C2 | 6.6 µg/mL (≈ 21.8 µM) |
| C=CCn1cccc(C(=O)Nc2ccc(Cl)cc2)c1=O | 3.4 µg/mL (≈ 11.8 µM) |
| CCOc1ccc(Cn2c(=O)oc3ccccc32)cc1 | < 0.6 µg/mL |

| Structure (SMILES) | solubility kinetic |
| --- | --- |
| O=C1CC(c2ccccc2)CC(O)=C1C=NCc1ccncc1 (centres undefined) | > 46 µg/mL |
| Cc1cc(C)nc(NC(=O)CSc2ncccn2)n1 | > 41.3 µg/mL |
| O=C(COC(=O)c1ccc(Cl)cc1[N+](=O)[O-])NC(=O)c1ccccc1 | 4.8 µg/mL (≈ 13.2 µM) |
| CN1C(=O)c2ccc(C(=O)Nc3cccnc3)cc2C1=O | > 42.2 µg/mL |
| CC(CN1CCOCC1)OC(=O)c1ccc(Cl)cc1Cl.Cl (centres undefined) | 48.9 µg/mL |
| O=C(Cc1c[nH]c2ccccc12)NCc1ccco1 | > 38.1 µg/mL |
| Cl.NCCCCNCCCN | 16.4 µg/mL |
| Cc1cc(/C=C2\SC(=O)NC2=O)c(C)n1-c1ccc(N(C)C)cc1 | < 0.2 µg/mL |
| O=C(CN1CCCC1)NCC(=O)Nc1ccc(F)cc1 | > 41.9 µg/mL |
| Cc1cccc(CC2CC(=O)N(c3nc4ccccc4s3)C2=O)c1 (centres undefined) | 16.5 µg/mL (≈ 49 µM) |
| Cc1cc(C(=O)NCc2ccccc2Cl)c2ccccc2n1 | 4.1 µg/mL (≈ 13.2 µM) |
| Cc1cccn2c(=O)c3cc(C(=O)NCC(C)C)sc3nc12 | 1.2 µg/mL (≈ 3.8 µM) |
| CCc1ccc(C(=O)Nc2ccc3c(c2)n(C)c(=O)n3C)cc1 | 5.6 µg/mL (≈ 18.1 µM) |
| Cc1cc(NC(=O)COC(=O)c2ccccc2[N+](=O)[O-])no1 | 21.3 µg/mL (≈ 69.8 µM) |
| COc1ccc(-c2nc(C)ncc2-c2ccccc2)c(O)c1 | 6.4 µg/mL (≈ 21.9 µM) |
| COc1ccccc1CNc1ncccn1.O=C(O)C(=O)O | 34.4 µg/mL |
| Cc1[nH]n2cnnc2c(=O)c1Br.O=S(=O)(O)O | > 49.1 µg/mL |
| CCOC(=O)c1c(C)[nH]c(C(=O)OCc2ccc(C)cc2)c1C | 3.2 µg/mL (≈ 10.1 µM) |
| COC(=O)C1CCN(C(=O)CN2C(=O)NC3(CCC(C)CC3)C2=O)CC1 (centres undefined) | > 54.8 µg/mL |
| COC(=O)/C=C1\SC(=Nc2ccc(OC)cc2)NC1=O | 1.9 µg/mL (≈ 6.5 µM) |
| COc1cccc(C2NC(=O)CCC2[N+](=O)[O-])c1 (centres undefined) | > 37.5 µg/mL |
| O=C(CNC(=O)c1ccco1)NCc1nc2ccccc2[nH]1 | > 44.7 µg/mL |
| O/N=C/c1ccc(-c2ccccc2OC(F)(F)F)o1 | 1.7 µg/mL (≈ 6.27 µM) |
| O=C(NCCNc1ccc([N+](=O)[O-])cc1)c1cc(F)c(F)cc1Cl | 2 µg/mL (≈ 5.62 µM) |

| Structure (SMILES) | solubility kinetic |
| --- | --- |
| COc1ccc(NC(=O)N2C[C@@H]3C[C@@H](C2)c2cccc(=O)n2C3)cc1 | > 50.9 µg/mL |
| COc1ccc(C(CNS(=O)(=O)c2ccc(NC(C)=O)c(OC)c2)N2CCCCC2)cc1.Cl (centres undefined) | > 74.7 µg/mL |
| COC(=O)c1cc(OC)c(OC)cc1N1C(=O)CC(C)(C)CC1=O | > 50.3 µg/mL |
| CCOc1ccc2[nH]c3c(NCCc4ccc(OC)c(OC)c4)ncnc3c2c1 | 5.9 µg/mL (≈ 15 µM) |
| C/C(=N\S(=O)(=O)c1ccc(C)cc1)N(C)C | > 36 µg/mL |
| Cl.O=C(CN1CCCC1)Nc1ccc2c(c1)CCC2 | 41.3 µg/mL |
| CC(C)c1ccccc1NC1=NCCCS1 | 35 µg/mL (≈ 149 µM) |
| Cc1ccccc1SCC(=O)NCCCn1ccnc1 | 42.9 µg/mL (≈ 148 µM) |
| O=C(CC(c1ccccc1)c1ccccc1O)N1CCCCC1 (centres undefined) | > 46.4 µg/mL |
| CN(C)N1C(=O)CC(N2CCCCC2)C1=O (centres undefined) | > 33.8 µg/mL |
| COc1ccc(C(=O)OCC(=O)c2ccc3c(c2)NC(=O)CO3)cc1S(=O)(=O)N1CCOCC1 | 11.3 µg/mL (≈ 23 µM) |
| Cc1cc(C(=O)Nc2cccc(S(=O)(=O)N3CCOCC3)c2)c2ccccc2n1 | 13.1 µg/mL (≈ 31.8 µM) |
| O=C(COc1ccccc1C(=O)O)NC1CCCc2ccccc21 (centres undefined) | 13.8 µg/mL (≈ 42.4 µM) |
| O=C(COC(=O)Cc1ccc(Br)cc1)NC1CCCC1 | > 51 µg/mL |
| COc1cccc(OCC(O)CNC2CCCC2)c1.Cl (centres undefined) | > 45.3 µg/mL |
| ClC1(Cl)CC1Cn1cnc2ccccc21 (centres undefined) | 33.4 µg/mL (≈ 139 µM) |
| Cc1ccccc1N1CCN(CCC(=O)Nc2ccc(F)cc2)CC1 | 39.9 µg/mL (≈ 117 µM) |
| O=c1[nH]c(-c2ccccc2)c(-c2ccccc2)o1 | 14.8 µg/mL (≈ 62.4 µM) |
| CC(C)CC(=O)N1CC(=O)Nc2ccc(F)cc2C1c1ccccc1 (centres undefined) | > 51.1 µg/mL |
| COc1ccc(/C=C/C(=O)OCC(=O)NC2CCCC2)cc1OC | 48.6 µg/mL (≈ 146 µM) |
| CCOc1ccccc1NC(=O)COc1cccnc1[N+](=O)[O-] | 7.5 µg/mL (≈ 23.6 µM) |
| CC1(C)CC(=O)c2cnc(NC(=O)CSC(=S)N3CCCCC3)nc2C1 | 2.9 µg/mL (≈ 7.39 µM) |
| FC(F)(F)c1cccc(-c2nc(COc3ccc(Cl)cc3Cl)no2)c1 | < 0.4 µg/mL |
